Reference: paper PMC11671526, “β-caryophyllene sensitizes hepatocellular carcinoma cells to chemotherapeutics and inhibits cell malignancy through targeting MAPK signaling pathway” (Frontiers in Pharmacology, 2024)

Tested on: HepG2 cells
Test: RNA-seq transcriptome analysis of differentially expressed genes
Type: cell-based, human
Details: BCP vs control HepG2
Method: The quality and concentration of RNA were examined by MOPS RNA electrophoresis and Eppendorf BioSpectrometer. The transcriptome analysis was performed by BGI-Wuhan China. The RNA-seq dataset of this study is accessible in the Gene Expression Omnibus (GEO) with an access number of GSE276099. The sequence library for each sample was prepared using the BGISEQ-500 platform with a 50-bp single-end (SE50) format. […]2.2.1) was used to align the clean reads to the reference genome and alignment of the clean reads to the reference genes was carried out using Bowtie2 (v2.4.5) ([Langmead and Salzberg, 2012]; [Kim et al., 2015]). Gene expression levels were calculated by RSEM (v1.3.1) ([Li and Dewey, 2011]). Analysis of differential gene expression was performed using edgeR in the Bioconductor software package ([Robinson et al., 2010]). Using a standard protocol, the RNA samples were also examined by reverse transcription and quantitative polymerase chain reaction (RT-qPCR). In brief, for reverse transcription, total RNA (1 μg) and gDNA wiper Mix were incubated at 42°C for 2 min. The samples were immediately incubated with a master mix containing 10 pmol/μL of poly (dT) primers at 37°C for 15 min and 85°C for 5 s. To detect the expression of specific genes by qPCR analysis, gene-specific primers (shown in Supplementary Table S1) were mixed with the ChamQ Universal SYBER qPCR Master Mix and the reaction was conducted using the Roche Lightcycler 480. The GAPDH value was used to normalize the results of each gene. The RNA-seq data of BCP-treated HepG2 cells were screened for DEGs. Gene symbols were turned into Enterz ID using the org.Hs.eg.db Bio-conductor R package. The cluster profiler (v4.6.2) package was used to perform the Kyoto Encyclopedia of Genes and Genomes (KEGG) and Gene Ontology (GO) enrichment analyses ([Wu et al., 2021]). Following the Transcript per million (TPM) data of the dataset, the line chart, and heatmap were plotted using ggplot2 and pheatmap R packages, respectively.

C=C1CC/C=C(\C)CC[C@@H]2[C@@H]1CC2(C)C [BCP, β-caryophyllene] was tested, and the “logFC LIPH” value (gene LIPH, RNA-seq) was -0.6901, the “change LIPH” value (gene LIPH, DEG direction) was “Down” and the “logFC LOC107984590” value (gene LOC107984590, RNA-seq) was -1.673. The “change LOC107984590” value (gene LOC107984590, DEG direction) was “Down”, the “logFC LRRK1” value (gene LRRK1, RNA-seq) was -0.9626 and the “change LRRK1” value (gene LRRK1, DEG direction) was “Down”. The “logFC LYSMD4” value (gene LYSMD4, RNA-seq) was -0.6364, the “change LYSMD4” value (gene LYSMD4, DEG direction) was “Down” and the “logFC MAB21L4” value (gene MAB21L4, RNA-seq) was 0.9293. For the same molecule, the “change MAB21L4” value (gene MAB21L4, DEG direction) was “Up”, the “logFC MAFA” value (gene MAFA, RNA-seq) was -0.8959 and the “change MAFA” value (gene MAFA, DEG direction) was “Down”. For the same molecule, the “logFC MAGEB17” value (gene MAGEB17, RNA-seq) was -2.787, the “change MAGEB17” value (gene MAGEB17, DEG direction) was “Down” and the “logFC MALL” value (gene MALL, RNA-seq) was -0.8293. The “change MALL” value (gene MALL, DEG direction) was “Down”, the “logFC MAMDC2” value (gene MAMDC2, RNA-seq) was 1.292 and the “change MAMDC2” value (gene MAMDC2, DEG direction) was “Up”. The “logFC MAP1A” value (gene MAP1A, RNA-seq) was -1.186, the “change MAP1A” value (gene MAP1A, DEG direction) was “Down” and the “logFC MAP7” value (gene MAP7, RNA-seq) was 0.7065. For the same molecule, the “change MAP7” value (gene MAP7, DEG direction) was “Up”, the “logFC MEF2B” value (gene MEF2B, RNA-seq) was -1.481 and the “change MEF2B” value (gene MEF2B, DEG direction) was “Down”. For the same molecule, the “logFC METTL7A” value (gene METTL7A, RNA-seq) was -1.025, the “change METTL7A” value (gene METTL7A, DEG direction) was “Down” and the “logFC MFSD12” value (gene MFSD12, RNA-seq) was 0.7075. The “change MFSD12” value (gene MFSD12, DEG direction) was “Up”, the “logFC MMP17” value (gene MMP17, RNA-seq) was 0.8815 and the “change MMP17” value (gene MMP17, DEG direction) was “Up”. For the same molecule, the “logFC MMP24” value (gene MMP24, RNA-seq) was 1.043, the “change MMP24” value (gene MMP24, DEG direction) was “Up” and the “logFC MNX1” value (gene MNX1, RNA-seq) was -0.6432. For the same molecule, the “change MNX1” value (gene MNX1, DEG direction) was “Down”, the “logFC MRPS6” value (gene MRPS6, RNA-seq) was -0.923 and the “change MRPS6” value (gene MRPS6, DEG direction) was “Down”. For the same molecule, the “logFC MTUS2” value (gene MTUS2, RNA-seq) was -1.542, the “change MTUS2” value (gene MTUS2, DEG direction) was “Down” and the “logFC MXD4” value (gene MXD4, RNA-seq) was -0.5803. For the same molecule, the “change MXD4” value (gene MXD4, DEG direction) was “Down”, the “logFC MYEOV” value (gene MYEOV, RNA-seq) was -0.7568 and the “change MYEOV” value (gene MYEOV, DEG direction) was “Down”. For the same molecule, the “logFC MYH15” value (gene MYH15, RNA-seq) was -1.78, the “change MYH15” value (gene MYH15, DEG direction) was “Down” and the “logFC MYLK3” value (gene MYLK3, RNA-seq) was 0.5851. For the same molecule, the “change MYLK3” value (gene MYLK3, DEG direction) was “Up”, the “logFC MYT1L” value (gene MYT1L, RNA-seq) was 0.8858 and the “change MYT1L” value (gene MYT1L, DEG direction) was “Up”. The “logFC MYZAP” value (gene MYZAP, RNA-seq) was -1.044, the “change MYZAP” value (gene MYZAP, DEG direction) was “Down” and the “logFC NDC80” value (gene NDC80, RNA-seq) was 0.6133. For the same molecule, the “change NDC80” value (gene NDC80, DEG direction) was “Up”, the “logFC NES” value (gene NES, RNA-seq) was -0.6748 and the “change NES” value (gene NES, DEG direction) was “Down”. The “logFC NEXN” value (gene NEXN, RNA-seq) was 0.7024, the “change NEXN” value (gene NEXN, DEG direction) was “Up” and the “logFC NKD1” value (gene NKD1, RNA-seq) was 1.009. For the same molecule, the “change NKD1” value (gene NKD1, DEG direction) was “Up”, the “logFC NKD2” value (gene NKD2, RNA-seq) was 0.8671 and the “change NKD2” value (gene NKD2, DEG direction) was “Up”. For the same molecule, the “logFC NOG” value (gene NOG, RNA-seq) was -0.6516, the “change NOG” value (gene NOG, DEG direction) was “Down” and the “logFC NOXO1” value (gene NOXO1, RNA-seq) was -0.746. For the same molecule, the “change NOXO1” value (gene NOXO1, DEG direction) was “Down”, the “logFC NPIPB8” value (gene NPIPB8, RNA-seq) was -2.227 and the “change NPIPB8” value (gene NPIPB8, DEG direction) was “Down”. The “logFC NR4A1” value (gene NR4A1, RNA-seq) was 0.6275, the “change NR4A1” value (gene NR4A1, DEG direction) was “Up” and the “logFC NR4A3” value (gene NR4A3, RNA-seq) was 0.9047. For the same molecule, the “change NR4A3” value (gene NR4A3, DEG direction) was “Up”, the “logFC OASL” value (gene OASL, RNA-seq) was -1.216 and the “change OASL” value (gene OASL, DEG direction) was “Down”. For the same molecule, the “logFC P4HA3” value (gene P4HA3, RNA-seq) was 1.2167, the “change P4HA3” value (gene P4HA3, DEG direction) was “Up” and the “logFC PAK6” value (gene PAK6, RNA-seq) was -1.538. For the same molecule, the “change PAK6” value (gene PAK6, DEG direction) was “Down”, the “logFC PALM3” value (gene PALM3, RNA-seq) was -0.7485 and the “change PALM3” value (gene PALM3, DEG direction) was “Down”. The “logFC PAPPA” value (gene PAPPA, RNA-seq) was 0.997, the “change PAPPA” value (gene PAPPA, DEG direction) was “Up” and the “logFC PAQR5” value (gene PAQR5, RNA-seq) was -0.667. For the same molecule, the “change PAQR5” value (gene PAQR5, DEG direction) was “Down”, the “logFC PCSK1” value (gene PCSK1, RNA-seq) was 0.7709 and the “change PCSK1” value (gene PCSK1, DEG direction) was “Up”. The “logFC PDE7B” value (gene PDE7B, RNA-seq) was 0.7688, the “change PDE7B” value (gene PDE7B, DEG direction) was “Up” and the “logFC PDK1” value (gene PDK1, RNA-seq) was 0.6017. The “change PDK1” value (gene PDK1, DEG direction) was “Up”, the “logFC PDK4” value (gene PDK4, RNA-seq) was 1.109 and the “change PDK4” value (gene PDK4, DEG direction) was “Up”. For the same molecule, the “logFC PI3” value (gene PI3, RNA-seq) was -1.544, the “change PI3” value (gene PI3, DEG direction) was “Down” and the “logFC PLD1” value (gene PLD1, RNA-seq) was 0.6612. For the same molecule, the “change PLD1” value (gene PLD1, DEG direction) was “Up”, the “logFC PLEKHG1” value (gene PLEKHG1, RNA-seq) was 0.983 and the “change PLEKHG1” value (gene PLEKHG1, DEG direction) was “Up”. For the same molecule, the “logFC PNPLA6” value (gene PNPLA6, RNA-seq) was -0.6244, the “change PNPLA6” value (gene PNPLA6, DEG direction) was “Down” and the “logFC PPP1R15A” value (gene PPP1R15A, RNA-seq) was 0.636. For the same molecule, the “change PPP1R15A” value (gene PPP1R15A, DEG direction) was “Up”, the “logFC PRICKLE2” value (gene PRICKLE2, RNA-seq) was -2.048 and the “change PRICKLE2” value (gene PRICKLE2, DEG direction) was “Down”. For the same molecule, the “logFC PRKCZ” value (gene PRKCZ, RNA-seq) was 0.789, the “change PRKCZ” value (gene PRKCZ, DEG direction) was “Up” and the “logFC PRRG4” value (gene PRRG4, RNA-seq) was -0.7407. For the same molecule, the “change PRRG4” value (gene PRRG4, DEG direction) was “Down”, the “logFC PSD4” value (gene PSD4, RNA-seq) was -0.8285 and the “change PSD4” value (gene PSD4, DEG direction) was “Down”. For the same molecule, the “logFC PTGS1” value (gene PTGS1, RNA-seq) was -1.083, the “change PTGS1” value (gene PTGS1, DEG direction) was “Down” and the “logFC PXDN” value (gene PXDN, RNA-seq) was 0.6603. The “change PXDN” value (gene PXDN, DEG direction) was “Up”, the “logFC RAB17” value (gene RAB17, RNA-seq) was -1.103 and the “change RAB17” value (gene RAB17, DEG direction) was “Down”. For the same molecule, the “logFC RAB43” value (gene RAB43, RNA-seq) was -0.73, the “change RAB43” value (gene RAB43, DEG direction) was “Down” and the “logFC RAPGEF3” value (gene RAPGEF3, RNA-seq) was -0.8733.
